Measured values taken from PMC8558867, “Development of BromoTag: A “Bump-and-Hole”–PROTAC System to Induce Potent, Rapid, and Selective Degradation of Tagged Target Proteins” (Journal of Medicinal Chemistry, 2021).

Key:
BromoTag-Brd2 [1] = experiment: Dose–response degradation assay (western blot, 6 h) in heterozygous BromoTag-Brd2 HEK293 cells; format: cell-based, human; conditions: 6 h; for pDC50 (Ab: Brd^4BD2 L387A) / pDC50 (Ab: BromoTag-Brd2): eight-point 10 μM to 1 nM, mean ±S.E. of two repeats; for DC50: read-out: DC50 of BromoTag-Brd2 degradation (DC50, 6h), single stereoisomers
VHL (VCB protein) = target: T1, VHL (VCB protein) (Homo sapiens, UniProt P40337); experiment: FP competitive binding assay, binary binding; conditions: compound alone; mean ±S.E.M., N = 4; read-out: binary affinity to VHL Kd
T1 construct: N-terminally His6-tagged VHL (54–213); His6 (N, cleaved yes); made in house; host or cells: E. coli

VHL with Brd4^BD2 L387A = target: T2, VHL with Brd4^BD2 L387A (Homo sapiens, UniProt O60885+P40337, L387A); experiment: FP competitive binding assay, ternary complex binding (compound preincubated with Brd4^BD2 L387A); conditions: for α (FP binding): cooperativity, Kd binary/Kd ternary, supplementary CSV; for Kd: preincubated with Brd4^BD2 L387A, mean ±S.E.M., N = 4, read-out: ternary binding affinity Kd; for cooperativity (α): α = Kd binary/Kd ternary
T2 construct: N-terminally His6-tagged VHL (54–213); His6 (N, cleaved yes); made in house; host or cells: E. coli

BromoTag-Brd2 [2] = experiment: Time course degradation assay (western blot, 0–36 h) in heterozygous BromoTag-Brd2 HEK293 cells; format: cell-based, human; conditions: 500 nM 47, 1 μM 48, over 36 h
Protocol: Heterozygous BromoTag-Brd2 HEK293 cells were plated at a density of 5 × 10^5 cells per well of a six-well healthy plate a day prior to initiating the time course assay. […] The time point range was between 0 and 36 h. Treatment was applied in a staggered fashion to enable all time points to be harvested at the same time.
All cells were harvested on ice with RIPA lysis and extraction buffer (Thermo Fisher Scientific, 89901) supplemented with protease inhibitor cocktail (Merck, 11697498001) and Benzonase Nuclease (Sigma, E1014) before being stored at −20 °C prior to use. Total protein quantity was determined using the BCA protein assay (#23225, Pierce, Rockford, Illinois). The protein concentration was determined using the BCA assay (Thermo Fisher Scientific, 23225). The samples were then prepared and loaded onto NuPAGE 4–12% bis–tris Midi gels (Thermo Fisher Scientific, WG1403A), followed by the transfer of proteins onto nitrocellulose membranes (EMD Millipore). The membranes were blocked for 1 h prior to incubation with the primary antibodies using 5% Milk TBST. […] All western blots were analyzed for band intensities using Image Lab from Bio-Rad (LI-COR, Biosciences). The data extracted from these blots were then plotted and analyzed using Prism (v. 8.2.0, GraphPad).

22RV1 cells = experiment: CellTiter-Glo 2.0 cell viability assay, 22RV1; format: cell-based, human; conditions: Homo sapiens; 22RV1, 48 Hours, mean ±S.E.M, N = 2; read-out: pEC50 (cell viability) (converted)

SMILES	pDC50 (Ab: Brd^4BD2 L387A) (BromoTag-Brd2 [1])	pDC50 (Ab: BromoTag-Brd2) (BromoTag-Brd2 [1])	DC50 (BromoTag-Brd2 [1])	Kd (VHL (VCB protein))	α (FP binding) (VHL with Brd4^BD2 L387A)	Kd (VHL with Brd4^BD2 L387A)	cooperativity (α) (VHL with Brd4^BD2 L387A)	extent of BromoTag-Brd2 degradation in the time course experiment (BromoTag-Brd2 [2])	EC50 (22RV1 cells)
CC[C@@H](C(=O)OCCOCCCOCC(=O)N[C@H](C(=O)N1C[C@H](O)C[C@H]1C(=O)N[C@@H](C)c1ccc(-c2scnc2C)cc1)C(C)(C)C)[C@@H]1N=C(c2ccc(Cl)cc2)c2c(sc(C)c2C)-n2c(C)nnc21 [AGB2 (47), 2-(3-(2-(((S)-1-((2S,4R)-4-Hydroxy-2-(((S)-1-(4-(4-methylthiazol-5-yl)phenyl)ethyl)carbamoyl)pyrrolidin-1-yl)-3,3-dimethyl-1-oxobutan-2-yl)amino)-2-oxoethoxy)propoxy)ethyl (R)-2-((S)-4-(4-chlorophenyl)-2,3,9-trimethyl-6H-thieno[3,2-f][1,2,4]triazolo[4,3-a][1,4]diazepin-6-yl)butanoate]	9.0 ± 0.4	8.6 ± 0.2	1 to 3 nM	45 nM	3.6	12 nM	3.6	near-complete target degradation	–
CC[C@@H](C(=O)NCCOCCOCCOCC(=O)N[C@H](C(=O)N1C[C@H](O)C[C@H]1C(=O)NCc1ccc(-c2scnc2C)cc1)C(C)(C)C)[C@@H]1N=C(c2ccc(Cl)cc2)c2c(sc(C)c2C)-n2c(C)nnc21 [AGB3 (48), (2S,4R)-1-((2S,17R)-2-(tert-Butyl)-17-((S)-4-(4-chlorophenyl)-2,3,9-trimethyl-6H-thieno[3,2-f][1,2,4]triazolo[4,3-a][1,4]diazepin-6-yl)-4,16-dioxo-6,9,12-trioxa-3,15-diazanonadecanoyl)-4-hydroxy-N-(4-(4-methylthiazol-5-yl)benzyl)pyrrolidine-2-carboxamide]	6.5 ± 0.3	6.7 ± 0.1	210 to 290 nM	102 nM	10.9	9 nM	10.9	–	–
Cc1ncsc1-c1ccc(CNC(=O)[C@@H]2C[C@H](O)CN2C(=O)[C@@H](NC(=O)COCCOCCOCCNC(=O)C[C@@H]2N=C(c3ccc(Cl)cc3)c3c(sc(C)c3C)-n3c(C)nnc32)C(C)(C)C)cc1 [cis-MZ1]	–	–	–	–	–	–	–	–	> 10000 nM
